Source: patent US9149475B2, “Protein kinase C inhibitors and uses thereof” (Rigel Pharmaceuticals, Inc., priority 2009, dated 2015)

Tested on: Human primary T cells
Test: IL-2 ELISA, human primary T cell, anti-CD3+CD28+ (whole cell assay)
Format: cell-based
Details: Homo sapiens, T-cell, 24 h, human primary T cells stimulated with anti-CD3 + anti-CD28, 24 hours
Method: (§1) Human primary T cells were prepared as follows. Whole blood was obtained from a healthy volunteer, mixed 1:1 with PBS, layered on to Ficoll Hypaque (Amersham Pharmacia Biotech, Piscataway, N.J., Catalog #17-1440-03) in 2:1 blood/PBS:ficoll ratio and centrifuged for 30 minutes at 4° C. at 1750 rpm. The cells at the serum:ficoll interface were recovered and washed twice with 5 volumes of PBS. These freshly isolated human peripheral blood mononuclear cells were cultured in Yssel's medium containing 40 U/mL IL2 in a flask pre-coated with 1 μg/mL αCD3 and 5 μg/mL αCD28 (Anti-Human CD3, BD Pharmingen Catalog #555336, Anti-Human CD28, Beckman Coulter Catalog #IM1376). The cells were stimulated for 3-4 days, then transferred to a fresh flask and maintained in RPMI (RPMI-1640 with L-Glutamine; Mediatech, Inc., Herndon Va., cat. #10-040-CM) with 10% FBS and 40 U/mL IL-2. The primary T-cells were then washed twice with PBS to remove the IL-2.
Human primary T cells (100,000 cells per well) were pre-incubated with or without test compound in Yssel's medium for 1 hr at 37° C. Cells were then stimulated by transferring them to round-bottom 96-well plates pre-coated with 1 μg/ml μCD3 and 5 μg/ml μCD28. For counter assay, cells were instead stimulated by adding 8× stock solutions of PMA and ionomycin in Yssels (for final concentrations of 0.5 ng/ml PMA and 0.1 μM ionomycin, both from Calbiochem). Cells were incubated at 37° C. for 24 hours before 100 μL supernatants were harvested for quantification of IL-2 by ELISA using Human IL-2 Duoset ELISA Kit from R and D Systems, Cat. #DY202E.
as §1, with “Human primary T cell isolation and culture: Human primary” for “Human primary”, “for 30 min at 4°” for “for 30 minutes at 4°”, “at the serum: ficoll interface were” for “at the serum:ficoll interface were”
Primary T cell stimulation and IL2 ELISA: Human primary T cells (100,000 cells per well) were pre-incubated with or without test compound in Yssel's medium for 1 hr at 37° C. Cells were then stimulated by transferring them to round-bottom 96-well plates pre-coated with 1 μg/ml αCD3 and 5 μg/ml αCD28. For counter assay, cells were instead stimulated by adding 8× stock solutions of PMA and ionomycin in Yssels (for final concentrations of 0.5 ng/ml PMA and 0.1 μM ionomycin, both from Calbiochem). Cells were incubated at 37° C. for 24 hours before 100 μL supernatants were harvested for quantification of IL-2 by ELISA using Human IL-2 Duoset ELISA Kit from R and D Systems, Cat. #DY202E.

SMILES	IC50 [µM]
Cc1ccn(-c2cccc(Nc3ncc(F)c(NC4CC(C)(C)N(C)C(C)(C)C4)n3)c2)n1 [Compound I-1, 5-fluoro-N2-(3-(3-methyl-1H-pyrazol-1-yl)phenyl)-N4-(1,2,2,6,6-pentamethylpiperidin-4-yl)pyrimidine-2,4-diamine]	> 1
CN1C(C)(C)CC(Nc2nc(Nc3cccc(-n4ccc(C(F)(F)F)n4)c3)ncc2F)CC1(C)C [Compound I-2, 5-fluoro-N2-(3-(3-(trifluoromethyl)-1H-pyrazol-1-yl)phenyl)-N4-(1,2,2,6,6-pentamethylpiperidin-4-yl)pyrimidine-2,4-diamine]	> 1
CC1(C)CC(Nc2nc(Nc3cccc(-n4ccc(C(F)(F)F)n4)c3)ncc2F)CC(C)(C)N1 [Compound I-3, 5-fluoro-N2-(3-(3-(trifluoromethyl)-1H-pyrazol-1-yl)phenyl)-N4-(2,2,6,6-tetramethylpiperidin-4-yl)pyrimidine-2,4-diamine]	> 1
CN1C(C)(C)CC(Nc2nc(Nc3cc(F)cc(OCCn4ccnn4)c3)ncc2F)CC1(C)C [Compound I-6, N2-(3-(2-(1H-1,2,3-triazol-1-yl)ethoxy)-5-fluorophenyl)-5-fluoro-N4-(1,2,2,6,6-pentamethylpiperidin-4-yl)pyrimidine-2,4-diamine]	0.5 to 1
CC1(C)CC(Nc2nc(Nc3cc(F)cc(OCCn4ccnn4)c3)ncc2F)CC(C)(C)N1 [Compound I-8, N2-(3-(2-(1H-1,2,3-triazol-1-yl)ethoxy)-5-fluorophenyl)-5-fluoro-N4-(2,2,6,6-tetramethylpiperidin-4-yl)pyrimidine-2,4-diamine]	> 1
Cc1nnnn1-c1cc(Nc2ncc(F)c(NC3CC(C)(C)N(C)C(C)(C)C3)n2)ccc1F [Compound I-9, 5-fluoro-N2-(4-fluoro-3-(5-methyl-1H-tetrazol-1-yl)phenyl)-N4-(1,2,2,6,6-pentamethylpiperidin-4-yl)pyrimidine-2,4-diamine]	< 0.25
Cc1nnnn1-c1cc(Nc2ncc(F)c(NC3CC(C)(C)N(CC4CC4)C(C)(C)C3)n2)ccc1F [Compound I-11, N4-(1-(cyclopropylmethyl)-2,2,6,6-tetramethylpiperidin-4-yl)-5-fluoro-N2-(4-fluoro-3-(5-methyl-1H-tetrazol-1-yl)phenyl)pyrimidine-2,4-diamine]	> 1
CN1C(C)(C)CC(Nc2nc(Nc3cccc(-n4cncn4)c3)ncc2F)CC1(C)C [Compound I-12, N2-(3-(1H-1,2,4-triazol-1-yl)phenyl)-5-fluoro-N4-(1,2,2,6,6-pentamethylpiperidin-4-yl)pyrimidine-2,4-diamine]	0.5 to 1
CC1(C)CC(Nc2nc(Nc3cc(F)cc(OCCn4ccnn4)c3)ncc2C#N)CC(C)(C)N1 [Compound I-17, 4-(2,2,6,6-tetramethylpiperidin-4-ylamino)-2-(3-(2-(1H-1,2,3-triazol-1-yl)ethoxy)-5-fluorophenylamino)pyrimidine-5-carbonitrile]	> 1
Cc1nnnn1-c1cc(Nc2ncc(C#N)c(NC3CC(C)(C)NC(C)(C)C3)n2)ccc1F [Compound I-18, 4-(2,2,6,6-tetramethylpiperidin-4-ylamino)-2-(4-fluoro-3-(5-methyl-1H-tetrazol-1-yl)phenylamino)pyrimidine-5-carbonitrile]	0.25 to 0.5
CC1(C)CC(Nc2nc(Nc3cccc(-n4cncn4)c3)ncc2F)CC(C)(C)N1 [Compound I-19, N2-(3-(1H-1,2,4-triazol-1-yl)phenyl)-5-fluoro-N4-(2,2,6,6-tetramethylpiperidin-4-yl)pyrimidine-2,4-diamine]	0.5 to 1
Cc1nnnn1-c1cc(Nc2ncc(F)c(NC3CC(C)(C)N(C)C(C)(C)C3)n2)ccc1OC(F)(F)F [Compound I-20, 5-fluoro-N2-(3-(5-methyl-1H-tetrazol-1-yl)-4-(trifluoromethoxy)phenyl)-N4-(1,2,2,6,6-pentamethylpiperidin-4-yl)pyrimidine-2,4-diamine]	< 0.25
CN1C(C)(C)CC(Nc2nc(Nc3cccc(-n4cccn4)c3)ncc2F)CC1(C)C [Compound I-22, N2-(3-(1H-pyrazol-1-yl)phenyl)-5-fluoro-N4-(1,2,2,6,6-pentamethylpiperidin-4-yl)pyrimidine-2,4-diamine]	0.5 to 1
CC1(C)CC(Nc2nc(Nc3cccc(-n4cccn4)c3)ncc2F)CC(C)(C)N1 [Compound I-23, N2-(3-(1H-pyrazol-1-yl)phenyl)-5-fluoro-N4-(2,2,6,6-tetramethylpiperidin-4-yl)pyrimidine-2,4-diamine]	> 1

Next, values leading:

IC50 [µM]	SMILES
0.25 to 0.5	Cc1ccc(C)n1-c1cc(Nc2ncc(F)c(NC3CC(C)(C)N(C)C(C)(C)C3)n2)ccc1OC(F)F [Compound I-4, N2-(4-(difluoromethoxy)-3-(2,5-dimethyl-1H-pyrrol-1-yl)phenyl)-5-fluoro-N4-(1,2,2,6,6-pentamethylpiperidin-4-yl)pyrimidine-2,4-diamine]
0.5 to 1	Cc1ccc(C)n1-c1cc(Nc2ncc(F)c(NC3CC(C)(C)NC(C)(C)C3)n2)ccc1OC(F)F [Compound I-5, N2-(4-(difluoromethoxy)-3-(2,5-dimethyl-1H-pyrrol-1-yl)phenyl)-5-fluoro-N4-(2,2,6,6-tetramethylpiperidin-4-yl)pyrimidine-2,4-diamine]
> 1	Cc1ccn(-c2cccc(Nc3ncc(F)c(NC4CC(C)(C)NC(C)(C)C4)n3)c2)n1 [Compound I-7, 5-fluoro-N2-(3-(3-methyl-1H-pyrazol-1-yl)phenyl)-N4-(2,2,6,6-tetramethylpiperidin-4-yl)pyrimidine-2,4-diamine]
0.25 to 0.5	Cc1nnnn1-c1cc(Nc2ncc(F)c(NC3CC(C)(C)NC(C)(C)C3)n2)ccc1F [Compound I-10, 5-fluoro-N2-(4-fluoro-3-(5-methyl-1H-tetrazol-1-yl)phenyl)-N4-(2,2,6,6-tetramethylpiperidin-4-yl)pyrimidine-2,4-diamine]
> 1	CCOc1ccc(Nc2ncc(F)c(NC3CC(C)(C)N(C)C(C)(C)C3)n2)cc1-n1c(C)ccc1C [Compound I-13, N2-(4-ethoxy-3-(2,5-dimethyl-1H-pyrrol-1-yl)phenyl)-5-fluoro-N4-(1,2,2,6,6-pentamethylpiperidin-4-yl)pyrimidine-2,4-diamine]
0.5 to 1	CCOc1ccc(Nc2ncc(F)c(NC3CC(C)(C)NC(C)(C)C3)n2)cc1-n1c(C)ccc1C [Compound I-14, N2-(4-ethoxy-3-(2,5-dimethyl-1H-pyrrol-1-yl)phenyl)-5-fluoro-N4-(2,2,6,6-tetramethylpiperidin-4-yl)pyrimidine-2,4-diamine]
0.5 to 1	Cc1ccc(C)n1-c1cc(Nc2ncc(F)c(NC3CC(C)(C)N(C)C(C)(C)C3)n2)ccc1OC(C)C [Compound I-15, N2-(4-isopropyloxy-3-(2,5-dimethyl-1H-pyrrol-1-yl)phenyl)-5-fluoro-N4-(1,2,2,6,6-pentamethylpiperidin-4-yl)pyrimidine-2,4-diamine]
> 1	Cc1ccc(C)n1-c1cc(Nc2ncc(F)c(NC3CC(C)(C)NC(C)(C)C3)n2)ccc1OC(C)C [Compound I-16, N2-(4-isopropyloxy-3-(2,5-dimethyl-1H-pyrrol-1-yl)phenyl)-5-fluoro-N4-(2,2,6,6-tetramethylpiperidin-4-yl)pyrimidine-2,4-diamine]
< 0.25	Cc1nnnn1-c1cc(Nc2ncc(F)c(NC3CC(C)(C)NC(C)(C)C3)n2)ccc1OC(F)(F)F [Compound I-21, 5-fluoro-N2-(3-(5-methyl-1H-tetrazol-1-yl)-4-(trifluoromethoxy)phenyl)-N4-(2,2,6,6-tetramethylpiperidin-4-yl)pyrimidine-2,4-diamine]
